Test results published in ChEMBL document CHEMBL4507275, “Data for DCP probe BI-2545” (2021).

Tests used:
[1] = biological target: Serine/threonine-protein kinase RIO3 (Homo sapiens) (UniProt O14730); conditions: Compound concentration 1000.0 nM
[2] = biological target: Calcium/calmodulin-dependent protein kinase type 1G (Homo sapiens) (UniProt Q96NX5); conditions: Compound concentration 1000.0 nM
[3] = biological target: Serine/threonine-protein kinase TAO3 (Homo sapiens) (UniProt Q9H2K8); conditions: Compound concentration 1000.0 nM
[4] = biological target: Membrane-associated tyrosine- and threonine-specific cdc2-inhibitory kinase (Homo sapiens) (UniProt Q99640); conditions: Compound concentration 1000.0 nM
[5] = system: Epidermal growth factor receptor (Homo sapiens), P00533 [UNDEFINED MUTATION]; conditions: Compound concentration 1000.0 nM
[6] = biological target: NT-3 growth factor receptor (Homo sapiens) (UniProt Q16288); conditions: Compound concentration 1000.0 nM
[7] = biological target: Tyrosine-protein kinase Lyn (Homo sapiens) (UniProt P07948); conditions: Compound concentration 1000.0 nM
[8] = biological target: Cyclin-dependent kinase 16 (Homo sapiens) (UniProt Q00536); conditions: Compound concentration 1000.0 nM
[9] = biological target: Fibroblast growth factor receptor 1 (Homo sapiens) (UniProt P11362); conditions: Compound concentration 1000.0 nM
[10] = biological target: Transient receptor potential cation channel subfamily M member 6 (Homo sapiens) (UniProt Q9BX84); conditions: Compound concentration 1000.0 nM
[11] = biological target: Dual specificity mitogen-activated protein kinase kinase 3 (Homo sapiens) (UniProt P46734); conditions: Compound concentration 1000.0 nM
[12] = system: Phosphatidylinositol 4,5-bisphosphate 3-kinase catalytic subunit alpha isoform (Homo sapiens), P42336 [C420R]; conditions: Compound concentration 1000.0 nM
[13] = biological target: Death-associated protein kinase 1 (Homo sapiens) (UniProt P53355); conditions: Compound concentration 1000.0 nM
[14] = biological target: Discoidin domain-containing receptor 2 (Homo sapiens) (UniProt Q16832); conditions: Compound concentration 1000.0 nM
[15] = system: Mast/stem cell growth factor receptor Kit (Homo sapiens), P10721 [A829P]; conditions: Compound concentration 1000.0 nM
[16] = system: Receptor-type tyrosine-protein kinase FLT3 (Homo sapiens), P36888 [D835Y]; conditions: Compound concentration 1000.0 nM
[17] = biological target: Serine/threonine-protein kinase NIM1 (Homo sapiens) (UniProt Q8IY84); conditions: Compound concentration 1000.0 nM
[18] = biological target: Fibroblast growth factor receptor 4 (Homo sapiens) (UniProt P22455); conditions: Compound concentration 1000.0 nM
[19] = biological target: BDNF/NT-3 growth factors receptor (Homo sapiens) (UniProt Q16620); conditions: Compound concentration 1000.0 nM
[20] = biological target: Mitogen-activated protein kinase kinase kinase 10 (Homo sapiens) (UniProt Q02779); conditions: Compound concentration 1000.0 nM
[21] = biological target: Serine/threonine-protein kinase 36 (Homo sapiens) (UniProt Q9NRP7); conditions: Compound concentration 1000.0 nM
[22] = biological target: Tyrosine-protein kinase ABL1 (Homo sapiens) (UniProt P00519); conditions: Compound concentration 1000.0 nM
[23] = biological target: Serine/threonine-protein kinase Chk1 (Homo sapiens) (UniProt O14757); conditions: Compound concentration 1000.0 nM
[24] = biological target: Calcium/calmodulin-dependent protein kinase type II subunit gamma (Homo sapiens) (UniProt Q13555); conditions: Compound concentration 1000.0 nM
[25] = biological target: Dual specificity protein kinase CLK1 (Homo sapiens) (UniProt P49759); conditions: Compound concentration 1000.0 nM
[26] = biological target: Leucine-rich repeat serine/threonine-protein kinase 2 (Homo sapiens) (UniProt Q5S007); conditions: Compound concentration 1000.0 nM
[27] = biological target: Dual specificity testis-specific protein kinase 1 (Homo sapiens) (UniProt Q15569); conditions: Compound concentration 1000.0 nM
[28] = biological target: 5-hydroxytryptamine receptor 6 (Homo sapiens) (UniProt P50406); conditions: Compound concentration 10.0 uM
[29] = biological target: MAP kinase-activated protein kinase 2 (Homo sapiens) (UniProt P49137); conditions: Compound concentration 1000.0 nM
[30] = biological target: Testis-specific serine/threonine-protein kinase 3 (Homo sapiens) (UniProt Q96PN8); conditions: Compound concentration 1000.0 nM
[31] = biological target: Tyrosine-protein kinase ABL1 (Homo sapiens) (UniProt P00519); conditions: Compound concentration 1000.0 nM; remark: listed apart in the source
[32] = biological target: Serine/threonine-protein kinase PAK 5 (Homo sapiens) (UniProt Q9P286); conditions: Compound concentration 1000.0 nM
[33] = biological target: Serine/threonine-protein kinase 33 (Homo sapiens) (UniProt Q9BYT3); conditions: Compound concentration 1000.0 nM
[34] = biological target: Phosphatidylinositol 3-kinase catalytic subunit type 3 (Homo sapiens) (UniProt Q8NEB9); conditions: Compound concentration 1000.0 nM
[35] = biological target: Serine/threonine-protein kinase tousled-like 2 (Homo sapiens) (UniProt Q86UE8); conditions: Compound concentration 1000.0 nM
[36] = system: Phosphatidylinositol 4,5-bisphosphate 3-kinase catalytic subunit alpha isoform (Homo sapiens), P42336 [M1043I]; conditions: Compound concentration 1000.0 nM
[37] = biological target: Cyclin-dependent kinase 11A (Homo sapiens) (UniProt Q9UQ88); conditions: Compound concentration 1000.0 nM
[38] = biological target: Dual specificity mitogen-activated protein kinase kinase 2 (Homo sapiens) (UniProt P36507); conditions: Compound concentration 1000.0 nM
[39] = biological target: Phosphatidylinositol 4,5-bisphosphate 3-kinase catalytic subunit beta isoform (Homo sapiens) (UniProt P42338); conditions: Compound concentration 1000.0 nM
[40] = biological target: Serine/threonine-protein kinase MAK (Homo sapiens) (UniProt P20794); conditions: Compound concentration 1000.0 nM
[41] = biological target: Ephrin type-B receptor 2 (Homo sapiens) (UniProt P29323); conditions: Compound concentration 1000.0 nM
[42] = biological target: Serine/threonine-protein kinase PLK2 (Homo sapiens) (UniProt Q9NYY3); conditions: Compound concentration 1000.0 nM
[43] = biological target: Wee1-like protein kinase (Homo sapiens) (UniProt P30291); conditions: Compound concentration 1000.0 nM
[44] = system: Tyrosine-protein kinase ABL1 (Homo sapiens), P00519 [Y253F]; conditions: Compound concentration 1000.0 nM

Cyclin-dependent kinase 11A (Homo sapiens), sequence (Q9UQ88 whole entry): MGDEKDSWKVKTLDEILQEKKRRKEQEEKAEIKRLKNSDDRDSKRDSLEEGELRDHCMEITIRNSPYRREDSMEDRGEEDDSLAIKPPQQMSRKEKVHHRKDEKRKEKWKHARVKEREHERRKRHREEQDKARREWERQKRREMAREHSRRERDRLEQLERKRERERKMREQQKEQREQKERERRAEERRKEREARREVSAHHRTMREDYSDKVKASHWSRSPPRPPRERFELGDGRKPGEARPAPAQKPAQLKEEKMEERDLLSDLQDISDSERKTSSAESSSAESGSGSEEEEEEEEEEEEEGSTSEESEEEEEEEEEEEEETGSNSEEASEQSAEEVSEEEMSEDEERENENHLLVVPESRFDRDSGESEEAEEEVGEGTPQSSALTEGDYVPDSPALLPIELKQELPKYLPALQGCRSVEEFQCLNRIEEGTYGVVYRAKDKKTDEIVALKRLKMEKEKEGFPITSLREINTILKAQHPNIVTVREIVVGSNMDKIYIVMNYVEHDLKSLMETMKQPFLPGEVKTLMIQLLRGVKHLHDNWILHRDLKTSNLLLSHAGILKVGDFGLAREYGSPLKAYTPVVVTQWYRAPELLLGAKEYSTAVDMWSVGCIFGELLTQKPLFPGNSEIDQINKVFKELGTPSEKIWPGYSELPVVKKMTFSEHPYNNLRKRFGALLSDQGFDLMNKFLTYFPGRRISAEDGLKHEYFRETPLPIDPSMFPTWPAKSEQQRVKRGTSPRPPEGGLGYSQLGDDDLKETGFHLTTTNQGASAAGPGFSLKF
Serine/threonine-protein kinase tousled-like 2 (Homo sapiens), sequence (Q86UE8 whole entry, looked up, canonical isoform): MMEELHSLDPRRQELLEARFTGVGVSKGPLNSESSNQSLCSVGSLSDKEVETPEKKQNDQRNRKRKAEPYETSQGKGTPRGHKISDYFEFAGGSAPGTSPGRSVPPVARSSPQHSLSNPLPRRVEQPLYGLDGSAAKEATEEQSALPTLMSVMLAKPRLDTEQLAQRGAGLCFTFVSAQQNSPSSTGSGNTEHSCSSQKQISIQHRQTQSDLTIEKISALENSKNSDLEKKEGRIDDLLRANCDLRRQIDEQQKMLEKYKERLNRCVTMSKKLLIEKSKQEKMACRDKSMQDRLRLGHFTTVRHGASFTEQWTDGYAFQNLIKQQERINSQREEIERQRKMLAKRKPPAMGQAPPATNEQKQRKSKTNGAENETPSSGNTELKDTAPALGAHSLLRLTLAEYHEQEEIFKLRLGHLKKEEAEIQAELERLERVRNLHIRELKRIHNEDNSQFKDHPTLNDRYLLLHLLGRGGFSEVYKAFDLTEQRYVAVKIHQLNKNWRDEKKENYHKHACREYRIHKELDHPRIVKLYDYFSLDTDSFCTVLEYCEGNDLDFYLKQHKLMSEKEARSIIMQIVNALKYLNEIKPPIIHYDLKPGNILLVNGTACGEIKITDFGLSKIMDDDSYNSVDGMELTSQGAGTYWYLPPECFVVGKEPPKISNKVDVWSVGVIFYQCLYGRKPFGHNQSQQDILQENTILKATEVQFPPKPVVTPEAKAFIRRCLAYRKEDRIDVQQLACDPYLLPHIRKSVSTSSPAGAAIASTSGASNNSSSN
Leucine-rich repeat serine/threonine-protein kinase 2 (Homo sapiens), sequence (Q5S007 whole entry): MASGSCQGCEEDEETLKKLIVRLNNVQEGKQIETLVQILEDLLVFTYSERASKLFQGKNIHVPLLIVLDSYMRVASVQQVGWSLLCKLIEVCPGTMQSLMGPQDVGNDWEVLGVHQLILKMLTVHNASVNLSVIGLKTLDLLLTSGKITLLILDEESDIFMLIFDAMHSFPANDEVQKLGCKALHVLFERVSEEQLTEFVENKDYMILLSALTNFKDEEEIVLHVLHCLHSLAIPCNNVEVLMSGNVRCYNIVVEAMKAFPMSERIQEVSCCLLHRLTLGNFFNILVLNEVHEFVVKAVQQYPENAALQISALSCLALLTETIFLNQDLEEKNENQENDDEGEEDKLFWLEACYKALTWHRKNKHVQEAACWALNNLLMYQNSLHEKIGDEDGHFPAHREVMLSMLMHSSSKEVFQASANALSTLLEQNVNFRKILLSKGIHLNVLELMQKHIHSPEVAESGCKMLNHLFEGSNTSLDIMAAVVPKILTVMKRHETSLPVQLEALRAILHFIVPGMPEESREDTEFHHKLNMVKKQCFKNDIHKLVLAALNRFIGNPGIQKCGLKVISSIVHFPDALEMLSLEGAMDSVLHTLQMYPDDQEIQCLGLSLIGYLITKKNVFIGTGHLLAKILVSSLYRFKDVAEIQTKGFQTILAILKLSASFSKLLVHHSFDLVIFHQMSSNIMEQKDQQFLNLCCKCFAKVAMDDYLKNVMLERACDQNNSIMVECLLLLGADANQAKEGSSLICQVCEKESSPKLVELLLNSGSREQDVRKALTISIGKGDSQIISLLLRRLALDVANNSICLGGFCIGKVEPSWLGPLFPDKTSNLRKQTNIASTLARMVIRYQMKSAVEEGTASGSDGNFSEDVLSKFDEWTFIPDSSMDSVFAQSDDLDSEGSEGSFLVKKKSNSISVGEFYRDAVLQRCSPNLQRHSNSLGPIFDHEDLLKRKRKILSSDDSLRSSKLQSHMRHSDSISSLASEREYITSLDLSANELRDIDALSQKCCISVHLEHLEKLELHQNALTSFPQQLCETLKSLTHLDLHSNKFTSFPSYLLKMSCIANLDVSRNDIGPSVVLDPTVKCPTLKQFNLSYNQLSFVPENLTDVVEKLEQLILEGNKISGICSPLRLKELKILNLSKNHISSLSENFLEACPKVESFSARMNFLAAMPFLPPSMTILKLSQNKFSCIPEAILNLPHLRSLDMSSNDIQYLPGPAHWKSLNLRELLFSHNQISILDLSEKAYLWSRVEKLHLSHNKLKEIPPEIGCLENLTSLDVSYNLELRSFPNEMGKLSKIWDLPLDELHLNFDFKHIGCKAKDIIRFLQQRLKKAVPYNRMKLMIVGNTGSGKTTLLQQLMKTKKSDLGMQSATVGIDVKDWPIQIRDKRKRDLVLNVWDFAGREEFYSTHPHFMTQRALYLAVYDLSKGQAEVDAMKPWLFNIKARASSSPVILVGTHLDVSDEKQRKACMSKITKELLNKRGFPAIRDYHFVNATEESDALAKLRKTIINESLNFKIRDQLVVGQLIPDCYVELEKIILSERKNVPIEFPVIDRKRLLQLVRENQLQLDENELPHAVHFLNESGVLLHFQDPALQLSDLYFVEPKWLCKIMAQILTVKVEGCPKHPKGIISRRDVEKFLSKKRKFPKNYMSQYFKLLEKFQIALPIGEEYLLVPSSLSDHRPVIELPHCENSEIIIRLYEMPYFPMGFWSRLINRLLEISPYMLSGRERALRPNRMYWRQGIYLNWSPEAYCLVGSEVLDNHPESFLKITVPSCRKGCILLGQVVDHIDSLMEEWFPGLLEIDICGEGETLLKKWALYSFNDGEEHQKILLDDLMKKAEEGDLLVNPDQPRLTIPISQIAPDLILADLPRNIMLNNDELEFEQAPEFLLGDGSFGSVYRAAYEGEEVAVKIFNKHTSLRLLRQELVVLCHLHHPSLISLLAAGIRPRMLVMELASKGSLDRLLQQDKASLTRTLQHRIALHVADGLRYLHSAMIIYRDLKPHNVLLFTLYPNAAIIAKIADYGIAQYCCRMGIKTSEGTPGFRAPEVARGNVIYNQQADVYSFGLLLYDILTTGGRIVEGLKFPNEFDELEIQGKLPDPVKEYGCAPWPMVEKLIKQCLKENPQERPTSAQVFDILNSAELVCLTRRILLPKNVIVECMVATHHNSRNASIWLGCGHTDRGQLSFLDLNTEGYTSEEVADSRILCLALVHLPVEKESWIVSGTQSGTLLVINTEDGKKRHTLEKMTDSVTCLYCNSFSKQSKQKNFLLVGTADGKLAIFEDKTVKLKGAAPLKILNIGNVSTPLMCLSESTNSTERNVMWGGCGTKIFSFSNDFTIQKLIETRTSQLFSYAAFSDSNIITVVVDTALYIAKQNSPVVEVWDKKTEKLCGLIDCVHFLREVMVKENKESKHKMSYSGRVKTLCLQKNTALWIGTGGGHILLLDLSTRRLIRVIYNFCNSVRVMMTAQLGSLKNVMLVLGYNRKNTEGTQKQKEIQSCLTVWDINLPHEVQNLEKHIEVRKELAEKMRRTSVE
Serine/threonine-protein kinase PAK 5 (Homo sapiens), sequence (Q9P286 whole entry, looked up): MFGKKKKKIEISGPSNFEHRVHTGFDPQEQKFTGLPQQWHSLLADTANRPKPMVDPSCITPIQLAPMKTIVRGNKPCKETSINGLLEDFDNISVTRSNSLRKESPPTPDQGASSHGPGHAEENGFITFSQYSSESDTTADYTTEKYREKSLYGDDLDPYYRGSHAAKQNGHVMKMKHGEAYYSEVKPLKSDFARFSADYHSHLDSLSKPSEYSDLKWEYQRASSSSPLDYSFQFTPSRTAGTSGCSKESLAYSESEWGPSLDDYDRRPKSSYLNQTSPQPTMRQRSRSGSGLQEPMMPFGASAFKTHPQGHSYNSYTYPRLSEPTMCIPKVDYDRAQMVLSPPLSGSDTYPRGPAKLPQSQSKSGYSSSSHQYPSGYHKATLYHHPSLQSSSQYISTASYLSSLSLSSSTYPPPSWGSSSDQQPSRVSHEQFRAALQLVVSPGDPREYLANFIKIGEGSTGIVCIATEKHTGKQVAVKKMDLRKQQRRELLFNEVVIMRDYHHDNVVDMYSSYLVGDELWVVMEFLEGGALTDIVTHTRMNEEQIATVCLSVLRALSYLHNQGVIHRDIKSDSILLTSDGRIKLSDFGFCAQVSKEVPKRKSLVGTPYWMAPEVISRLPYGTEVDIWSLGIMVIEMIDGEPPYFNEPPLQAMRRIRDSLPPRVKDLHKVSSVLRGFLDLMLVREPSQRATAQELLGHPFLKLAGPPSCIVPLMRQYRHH
Testis-specific serine/threonine-protein kinase 3 (Homo sapiens), sequence (Q96PN8 whole entry): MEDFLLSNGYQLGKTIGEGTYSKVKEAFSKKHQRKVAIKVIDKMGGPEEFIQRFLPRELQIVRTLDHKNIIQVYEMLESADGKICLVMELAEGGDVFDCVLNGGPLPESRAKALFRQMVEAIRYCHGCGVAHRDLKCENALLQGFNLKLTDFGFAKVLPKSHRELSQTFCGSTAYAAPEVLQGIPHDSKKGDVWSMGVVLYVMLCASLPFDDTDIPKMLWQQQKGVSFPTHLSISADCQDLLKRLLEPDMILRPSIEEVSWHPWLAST

Cc1nccc(COC(=O)N2C[C@@H]3[C@@H](CNC(=O)c4ccc5[nH]nnc5c4)[C@@H]3C2)n1 [BI 3017]
inactive: residual activity [1] 100% | residual activity [2] 100% | residual activity [3] 83% | residual activity [4] 100% | residual activity [5] 71% | residual activity [6] 90% | residual activity [7] 100% | residual activity [8] 78% | residual activity [9] 91% | residual activity [10] 85% | residual activity [11] 84% | residual activity [12] 97% | residual activity [13] 95% | residual activity [14] 77% | residual activity [15] 94% | residual activity [16] 100% | residual activity [17] 87% | residual activity [18] 81% | residual activity [19] 100% | residual activity [20] 85% | residual activity [21] 92% | residual activity [22] 95% | residual activity [23] 100% | residual activity [24] 100% | residual activity [25] 100% | residual activity [26] 100% | residual activity [27] 98% | inhibition [28] 26.1% | residual activity [29] 72% | residual activity [30] 100% | residual activity [31] 91% | residual activity [32] 92% | residual activity [33] 93% | residual activity [34] 94% | residual activity [35] 100% | residual activity [36] 100% | residual activity [37] 100% | residual activity [38] 84% | residual activity [39] 84% | residual activity [40] 98% | residual activity [41] 100% | residual activity [42] 82% | residual activity [43] 100% | residual activity [44] 93%

O=C(NC[C@@H]1[C@H]2CN(C(=O)OCc3cc(C(F)(F)F)cc(C(F)(F)F)c3)C[C@@H]12)c1ccc2[nH]nnc2c1 [BI 2545]
inactive: residual activity [1] 94% | residual activity [2] 100% | residual activity [3] 88% | residual activity [4] 100% | residual activity [5] 89% | residual activity [6] 91% | residual activity [7] 100% | residual activity [8] 100% | residual activity [9] 90% | residual activity [10] 92% | residual activity [11] 93% | residual activity [12] 95% | residual activity [13] 93% | residual activity [14] 82% | residual activity [15] 100% | residual activity [16] 100% | residual activity [17] 100% | residual activity [18] 82% | residual activity [19] 99% | residual activity [20] 83% | residual activity [21] 100% | residual activity [22] 100% | residual activity [23] 92% | residual activity [24] 85% | residual activity [25] 87% | residual activity [26] 91% | residual activity [27] 79% | inhibition [28] 28.9% | residual activity [29] 100% | residual activity [30] 100% | residual activity [31] 87% | residual activity [32] 100% | residual activity [33] 84% | residual activity [34] 72% | residual activity [35] 90% | residual activity [36] 95% | residual activity [37] 100% | residual activity [38] 84% | residual activity [39] 100% | residual activity [40] 100% | residual activity [41] 100% | residual activity [42] 89% | residual activity [43] 100% | residual activity [44] 95%
